Where two headings read alike, the source gives them in different places.
Experiments:
[1] = molecular target: T1, RORγ ligand binding domain (LBD) (Homo sapiens, UniProt P51449); assay: TR-FRET Activity Assay (ligand sensing, RORγ-LBD / coactivator peptide interaction, LANCE); type: biochemical
T1 construct: made in house; host or cells: E. coli BL-21 (BL3), vector pDEST15
T1 sequence (P51449 269-508 limits assumed): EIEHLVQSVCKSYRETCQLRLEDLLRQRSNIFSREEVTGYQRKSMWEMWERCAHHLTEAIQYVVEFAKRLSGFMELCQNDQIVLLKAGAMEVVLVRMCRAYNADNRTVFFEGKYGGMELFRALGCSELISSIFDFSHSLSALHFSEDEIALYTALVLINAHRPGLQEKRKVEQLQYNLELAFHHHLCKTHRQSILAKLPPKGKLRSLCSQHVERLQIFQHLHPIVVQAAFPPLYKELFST

[2] = molecular target: T2, RORγ (UniProt P51449); assay: RORγ Gal4 Reporter Gene Assay in 293T cells (firefly and renilla luciferase); type: cell-based, human
T2 sequence (P51449 1-518): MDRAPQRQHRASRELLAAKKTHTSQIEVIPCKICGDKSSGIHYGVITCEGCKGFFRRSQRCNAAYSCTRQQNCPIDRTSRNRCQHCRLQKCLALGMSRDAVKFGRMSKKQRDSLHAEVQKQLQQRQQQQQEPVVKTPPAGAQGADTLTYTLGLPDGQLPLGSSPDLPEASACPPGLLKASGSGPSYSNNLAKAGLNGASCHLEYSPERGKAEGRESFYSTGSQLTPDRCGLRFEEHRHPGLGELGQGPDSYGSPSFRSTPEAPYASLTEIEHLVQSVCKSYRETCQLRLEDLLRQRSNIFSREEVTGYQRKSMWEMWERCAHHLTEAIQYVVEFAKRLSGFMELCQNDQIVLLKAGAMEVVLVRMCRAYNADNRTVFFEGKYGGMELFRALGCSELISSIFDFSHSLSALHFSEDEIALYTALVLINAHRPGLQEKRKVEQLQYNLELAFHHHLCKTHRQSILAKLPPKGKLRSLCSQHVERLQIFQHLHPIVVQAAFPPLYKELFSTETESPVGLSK

[3] = first value of the cell FRET/FF/REN, TR-FRET activity assay, read-out: pIC50 (FRET) (converted)
[4] = second value of the cell, Gal4 reporter gene assay in 293T cells, firefly luciferase
[5] = third value of the cell, Gal4 reporter gene assay in 293T cells, renilla normalised luciferase

| IC50 [1, 3] | pIC50 (FF) [2, 4] | pIC50 (REN) [2, 5] | Structure (SMILES) | IC50 [1] | pIC50 (FF) [2] | pIC50 (REN) [2] |
| --- | --- | --- | --- | --- | --- | --- |
| 0.398 µM | 7.4 | 7.5 | CC(C)(C)NS(=O)(=O)c1ccc(-c2cc(C(=O)NC3CCOCC3)c(F)n2CC2CCCCC2)cc1C(C)(C)C [Example 20, 5-(3-(tert-Butyl)-4-(N-(tert-butyl)sulfamoyl)phenyl)-1-(cyclohexylmethyl)-2-fluoro-N-(tetrahydro-2H-pyran-4-yl)-1H-pyrrole-3-carboxamide] | – | – | – |
| 0.398 µM | 7.5 | 7.6 | CC(C)(C)NS(=O)(=O)c1ccc(-c2cc(C(=O)NCCC(C)(C)C(=O)O)c(Cl)n2CC2CCCCC2)cc1C(F)(F)F [Example 22, 4-(5-(4-(N-(tert-Butyl)sulfamoyl)-3-(trifluoromethyl)phenyl)-2-chloro-1-(cyclohexylmethyl)-1H-pyrrole-3-carboxamido)-2,2-dimethylbutanoic acid] | – | – | – |
| 3.16 µM | 6.4 | 6.4 | Cc1c(C(=O)NC2CCOCC2)cc(C2=NN(C(=O)NC(C)(C)C)C3(CCCCC3)C2)n1CC1CCCCC1 [Example 24, N-(tert-Butyl)-3-(1-(cyclohexylmethyl)-5-methyl-4-((tetrahydro-2H-pyran-4-yl)carbamoyl)-1H-pyrrol-2-yl)-1,2-diazaspiro[4.5]dec-2-ene-1-carboxamide] | – | – | – |
| 1.58 µM | 6.3 | 6.2 | Cc1c(C(=O)NC2CCOCC2)cc(-c2ccc(C(NC(C)(C)C)C(F)(F)F)c(C(F)(F)F)c2)n1CC1CCCCC1 (stereo not drawn) [Example 25] | – | – | – |
| 1.26 µM | 6.6 | 6.9 | Cc1c(C(=O)NC2CCOCC2)cc(-c2ccc(S(=O)(=O)NC(C)(C)C)c(C(F)(F)F)c2)n1CC1(F)CCCCC1 [Example 28, 5-(4-(N-(tert-Butyl)sulfamoyl)-3-(trifluoromethyl)phenyl)-1-((1-fluorocyclohexyl)-methyl)-2-methyl-N-(tetrahydro-2H-pyran-4-yl)-1H-pyrrole-3-carboxamide] | – | – | – |
| 3.98 µM | 7.2 | 7.2 | Cc1c(C(=O)N[C@H]2C[C@H](C(=O)O)C2)c(Cl)c(-c2cc(C(C)(C)C)cc(C3(C)CC3)c2)n1CC1CCCCC1 [Example 29, (trans)-3-(5-(3-(tert-Butyl)-5-(1-methylcyclopropyl)phenyl)-4-chloro-1-(cyclohexylmethyl)-2-methyl-1H-pyrrole-3-carboxamido)cyclobutanecarboxylic acid] | – | – | – |
| 3.16 µM | 6.2 | 6.3 | Cc1c(C(=O)NC2CCOCC2)cc(-c2ccc(CN3CCOCC3)c(C(F)(F)F)c2)n1CC1CCCCC1 [Example 33, 1-(Cyclohexylmethyl)-2-methyl-5-(4-(morpholinomethyl)-3-(trifluoromethyl)phenyl)-N-(tetrahydro-2H-pyran-4-yl)-1H-pyrrole-3-carboxamide] | – | – | – |
| 0.398 µM | 6.8 | 7.1 | Cc1c(C(=O)NC2CCOCC2)cc(-c2ccc(CN3CCOCC3(C)C)c(C(F)(F)F)c2)n1CC1CCCCC1 [Example 34, 1-(Cyclohexylmethyl)-5-(4-((3,3-dimethylmorpholino)methyl)-3-(trifluoromethyl)phenyl)-2-methyl-N-(tetrahydro-2H-pyran-4-yl)-1H-pyrrole-3-carboxamide] | – | – | – |

The remaining lines, values behind:

| Structure (SMILES) | IC50 [1, 3] | pIC50 (FF) [2, 4] | pIC50 (REN) [2, 5] | IC50 [1] | pIC50 (FF) [2] | pIC50 (REN) [2] |
| --- | --- | --- | --- | --- | --- | --- |
| Cc1c(C(=O)NCC2(C)COC2)cc(-c2cc(S(=O)(=O)N3CCCCC3)c3ccccn23)n1CC1CCCCC1 [Example 8, 1-(Cyclohexylmethyl)-2-methyl-N-((3-methyloxetan-3-yl)methyl)-5-(1-(piperidin-1-ylsulfonyl)indolizin-3-yl)-1H-pyrrole-3-carboxamide] | 3.98 µM | 7.2 | 7.2 | – | – | – |
| Cc1c(C(=O)NC2COC2)cc(-c2cc(C(=O)N3CCCCC3)c3ccccn23)n1CC1CCCCC1 [Example 10/1] | 15.8 µM | 6.7 | 6.6 | – | – | – |
| Cc1c(C(=O)NCC(C)(C)C(=O)N2CCOCC2)cc(-c2cc(C(C)(C)C)c3c(c2)C2(CCO3)CC2)n1CC1CCCCC1 [Example 11, 5(8-(tert-Butyl)spiro[chroman-4,1′-cyclopropan]-6-yl)-1-(cyclohexylmethyl)-N-(2,2-dimethyl-3-morpholino-3-oxopropyl)-2-methyl-1H-pyrrole-3-carboxamide] | 0.251 µM | 6.5 | 6.5 | – | – | – |
| CNC(=O)C(C)(C)CNC(=O)c1cc(-c2cc(C(C)(C)C)c3c(c2)C2(CCO3)CC2)n(CC2CCCCC2)c1C [Example 11/1] | 0.251 µM | 7.3 | 7.3 | – | – | – |
| Cc1c(C(N)=O)cc(-c2cc(C3CC3)cc(C(C)(C)C)c2)n1CC1CCCCC1 [Example 12, 5-(3-(tert-Butyl)-5-cyclopropylphenyl)-1-(cyclohexylmethyl)-2-methyl-1H-pyrrole-3-carboxamide] | 1 µM | 6.1 | 6.2 | – | – | – |
| Cc1c(C(=O)NC2COC2)cc(-c2cc(C(=O)NC(C)(C)C)cc(C(F)(F)F)c2)n1CC1CCCCC1 [Example 15, 5-(3-(tert-Butylcarbamoyl)-5-(trifluoromethyl)phenyl)-1-(cyclohexylmethyl)-2-methyl-N-(oxetan-3-yl)-1H-pyrrole-3-carboxamide] | – | – | – | 0.501 µM | 6.3/6.9/6.9 | 6.3/6.9/6.9 |
| Cc1c(C(=O)NC2CCOCC2)cc(-c2ccc(S(N)(=O)=O)c(C(F)(F)F)c2)n1CC1CCCCC1 [Example 19, 1-(Cyclohexylmethyl)-2-methyl-5-(4-sulfamoyl-3-(trifluoromethyl)phenyl)-N-(tetrahydro-2H-pyran-4-yl)-1H-pyrrole-3-carboxamide] | 12.6 µM | 6.6 | 6.4 | – | – | – |
| CC(C)(C)NS(=O)(=O)c1ccc(-c2c(Cl)c(C(=O)NC3CCOCC3)c(Cl)n2CC2CCCCC2)c2ccccc12 [Example 23, 5-(4-(N-(tert-Butyl)sulfamoyl)naphthalen-1-yl)-2,4-dichloro-1-(cyclohexylmethyl)-N-(tetrahydro-2H-pyran-4-yl)-1H-pyrrole-3-carboxamide] | – | – | – | 0.2 µM | 6.7/8.5/8.5 | 6.7/8.5/8.5 |
| Cc1c(C(=O)NC2CCOCC2)cc(-c2ccc(-c3ccnn3C(C)C)c(C(C)(C)C)c2)n1CC1CCCCC1 [Example 26, 5-(3-(tert-Butyl)-4-(1-isopropyl-1H-pyrazol-5-yl)phenyl)-1-(cyclohexylmethyl)-2-methyl-N-(tetrahydro-2H-pyran-4-yl)-1H-pyrrole-3-carboxamide] | 0.2 µM | 7.5 | 7.6 | – | – | – |
| Cc1c(C(=O)NC2CCOCC2)cc(-c2ccc(-c3ccnn3C(C)C)c(C(C)(C)O)c2)n1CC1CCCCC1 [Example 27, 1-(Cyclohexylmethyl)-5-(3-(2-hydroxypropan-2-yl)-4-(1-isopropyl-1H-pyrazol-5-yl)phenyl)-2-methyl-N-(tetrahydro-2H-pyran-4-yl)-1H-pyrrole-3-carboxamide] | 2 µM | 6.4 | 6.5 | – | – | – |
| Cc1c(C(=O)NC2CCOCC2)cc(-c2cc(C(C)(C)O)c3c(c2)C2(CCO3)CC2)n1CC1CCCCC1 [Example 31, 1-(Cyclohexylmethyl)-5-(8-(2-hydroxypropan-2-yl)spiro[chroman-4,1′-cyclopropan]-6-yl)-2-methyl-N-(tetrahydro-2H-pyran-4-yl)-1H-pyrrole-3-carboxamide] | 1.26 µM | 6.9 | 6.9 | – | – | – |
